# Reference: patent publication US20200360372A1, “COMBINATION THERAPY FOR THE TREATMENT OF ACUTE MYELOID LEUKEMIA” (ASTELLAS PHARMA INC., priority 2016, published 2020)
# System: MV4-11 cells
# Test: Anti-apoptosis protein expression in MV4-11 cells (western blot)
# Type: cell-based, human
# Settings: 24 hours
# Experimental: Anti-Apoptosis Protein Expression
# MV4-11 cells were seeded on 15 cm dish and cultured overnight. The cells were treated with compound A at 0 (DMSO) or 10 nmol/L in combination with azacitidine at 0 (DMSO) or 1000 nmol/L at final concentration. The assay was performed in duplicate. After twenty-four hours, cells were harvested and lysed with lysis buffer (RIPA Buffer [Thermo Fisher Scientific], 1×Halt Phosphatase Inhibitor Cocktail [Thermo Fisher Scientific], and Protease Inhibitor Cocktail [Sigma-Aldrich]). The samples are centrifuged, and protein concentrations of supernatants were determined using the Pierce (trademark) 660 nm Protein Assay (Thermo Fisher Scientific). Aliquots of 2.0 μg protein/μL were prepared in sample buffer (10 mmol/L dithiothreitol (DTT) [Nacalai Tesque] and 1×SDS sample buffer [Wako Pure Chemical Industries, Ltd.], in lysis buffer), and then were boiled for 5 min.
# The samples were separated by electrophoresis and transferred with Trans-Blot (registration symbol) Turbo transfer Pack PVDF (Bio-Rad Laboratories). After blocking with Blocking One (Nacalai Tesque) for 1 hour, each membrane was incubated with antibodies against MCL-1 (#5453, Cell Signaling Technology), BCL2L10 (#3869. Cell Signaling Technology), Survivin (#AF886, R&D Systems), cleaved PARP (#9541, Cell Signaling Technology), or Actin (A2066, Sigma-Aldrich) overnight in a cold room. After washing, the membranes were then incubated with an anti-rabbit IgG HRP-linked antibody (#7074, Cell Signaling Technology) for 1 hour at room temperature. After a final wash, signals for the each proteins were detected using a chemiluminescence reagent ECL-prime Blotting Detection Reagent (GE Healthcare) with a CCD camera (ImageQuant LAS4000. GE Healthcare).
smiles,measurement,setting,value
"CCc1nc(C(N)=O)c(Nc2ccc(N3CCC(N4CCN(C)CC4)CC3)c(OC)c2)nc1NC1CCOCC1 [compound A hemifumarate, 6-ethyl-3-({3-methoxy-4-[4-(4-methylpiperazin-1-yl)piperidin-1-yl]phenyl}amino)-5-(tetrahydro-2H-pyran-4-ylamino)pyrazine-2-carboxamide hemifumarate]",expression of anti-apoptosis protein BCL2L10,10 nmol/L,inhibits
same,expression of anti-apoptosis protein MCL-1,10 nmol/L,inhibits
same,expression of anti-apoptosis protein survivin,10 nmol/L,inhibits
same,PARP cleavage,compound A 10 nmol/L with or without azacitidine 1000 nmol/L,increase
